Legend:
Type in all cases: cell-based, human
[1] = system: LX-1-E2; test: Gene expression analysis by quantitative PCR; conditions: resistant strain LX-1-E2, 8 μM, 0-12 hours, FIG. 5
Method: (§1) Similarly, E7070 was added to the media of an E7070-susceptible strain LX-1 and an E7070-resistant strain LX-1-E2 at a concentration of 8 μM and the cells were cultured. Cells were recovered after 0, 3, 6 and 12 hours. Total RNA was extracted from these cells and subjected to the subsequent analyses. LX-1 (Cancer Chemotherapy Center, Japan Foundation for Cancer Research, Tokyo, Japan) was a cell strain derived from human parvicellular lung cancer, and LX-1-E2 is an E7070-resistant substrain obtained by culturing this LX-1 in the presence of E7070 with gradually increasing the E7070 concentration. In order to confirm that variations in gene expression obtained in Example 2 reflected the susceptibility of a tumor cell to E7070, changes of gene expression in E7070-susceptible cells and E7070-resistant cells were examined by quantitative PCR using RNA shown in Example 1, SYBR Green and ABI Prism 7700 Sequence Detection System (Perkin-Elmer Applied Biosystems). […] The mRNA level in each specimen was quantified by measuring fluorescence intensity. In comparison of two or more specimens, quantitative values were corrected based on the mRNA level of GAPDH in each specimen. The relationships between the drug treatment time and each mRNA level are shown in FIGS. 2 to 5, where the quantified value at 0 hour after the drug treatment was used as a control (100%).

[2] = system: LX-1; test: Gene expression analysis by quantitative PCR; conditions: susceptible strain LX-1, 8 μM, 0-12 hours, FIG. 3
Method: as §1

[3] = system: LX-1-E2; test: Cell growth inhibition by the MTT method; conditions: resistant strain LX-1-E2, drug concentration 8 μM, 72 hours culture
Method: (§2) The used cell strains HCT116-C9, HCT116-C9-C1, LX-1 and LX-1-E2 were cultured for 72 hours with addition of E7070. The actual operation was performed by using CellTiter 96 Non-Radioactive Cell Proliferation Assay (Promega, Madison, Wis.) according to the attached operation manual.

[4] = system: HCT116-C9; test: Cell growth inhibition by the MTT method; conditions: HCT116-C9, 72 hours culture, FIG. 1
Method: as §2

Question: NS(=O)(=O)c1ccc(S(=O)(=O)Nc2cccc3c(Cl)c[nH]c23)cc1 [E7070, N-(3-chloro-7-indolyl)-1,4-benzenedisulfonamide] was tested. Which “mRNA level variation of S80343, U07919, U11791, M95809, U18291, U63743, M61764 (corrected by GAPDH)” value [1] did it give?
Answer: U11791 showed an expression change and M95809 and U18291 showed a slight expression change

Question: What about the “mRNA level variation of S80343, U07919, U11791, M95809, U18291, U63743, M61764 (corrected by GAPDH)” value [2] of the same molecule?
Answer: all the genes except for S80343 showed expression variations

Question: And the growth inhibitory effect [3]?
Answer: some growth inhibitory effect

Question: And the “susceptibility (cell growth inhibition)” value [4]?
Answer: highest susceptibility
